Patent publication US6335357B1, “Pyrazole derivatives, process for preparing the same, intermediates, and pest control agent containing the same as active ingredient” (Mitsubishi Chemical Corporation, priority 1997, dated 2002)

Columns and labels:
Type in all cases: in vivo
Nilaparvata lugens = experiment: Insecticidal effect on larvae of Nilaparvata lugens (Test Example 1); conditions: 500 ppm; 4th instar larvae on rice seedling, sprayed emulsion; after 5 days at 25° C.
Method: Insecticidal Effect on Larvae of Nilaparvata lugens:
A rice seedling was planted in a glass cylinder (inner diameter: 3 cm; length: 17 cm), and five 4th instar larvae of Nilaparvata lugens were set free therein. An agricultural and horticultural insecticide was prepared in accordance with Formulation Example 3 and diluted with water, and 0.5 ml of the resulting emulsion was sprayed in the cylinder by means of a spray tower (manufactured by Mizuho Rika) (duplicates at a concentration). The cylinder was kept in a thermostat at 25° C., and the mortality and agony of the larvae were examined after 5 days from the treatment to obtain a death rate (%) taking an agonizing insect as a ½ dead insect.

Plutella xylostella [1] = experiment: Insecticidal effect on larvae of Plutella xylostella (Test Example 2); conditions: 500 ppm; 3-instar larvae, cabbage leaf disc soaked in suspension; after 4 days at 25° C.
Method: Insecticideal Effect on Larvae of Plutella xylostella:
A disc (6 cm in diameter) cut out of a cabbage leaf was soaked in an aqueous suspension of the agricultural and horticultural insecticide prepared in accordance with Formulation Example 1 for 1 minute, air-dried, and placed in a plastic cup (inner diameter: 7 cm). Five 3-instar larvae of Plutella xylostella were set free in the cup (duplicates at a concentration). The cup was kept in a thermostat at 25° C., and the death and agony of the larvae were examined after 4 days from the treatment to obtain a death rate (%) taking an agonizing insect as a ½ dead insect. The results obtained are shown in Table 3 (the compound numbers in the Table below correspond to the numbers in Table 1).

Spodoptera litura [2] = experiment: Insecticidal effect on larvae of Spodoptera litura (Test Example 3); conditions: 500 ppm; 3-instar larvae, cabbage leaf disc soaked in suspension; after 5 days at 25° C.
Method: Insecticidal Effect on Larvae of Spodoptera litura:
A disc (6 cm in diameter) cut out of a cabbage leaf was soaked in an aqueous suspension of an agricultural and horticultural insecticide prepared in accordance with Formulation Example 1 for 1 minute, air-dried, and placed in a plastic cup (inner diameter: 7 cm). Five 3-instar larvae of Spodoptera litura were set free in the cup (duplicates at a concentation). The cup was kept in a thermostat at 25° C., and the death and agony of the larvae were examined after 5 days from the treatment to obtain a death rate (%) taking an agonizing insect as a ½ dead insect. The results obtained are show in Table 4 (the compound numbers in the Table below correspond to the numbers in Table 1).

Callosobruchus chinensis = experiment: Insecticidal effect on imagoes of Callosobruchus chinensis (Test Example 4); conditions: 500 ppm, sprayed emulsion, after 4 days at 25° C.
Method: Insecticidal Effect on Imagoes of Callosobruchus chinensis:
Two adzuki beans were put in a glass cylinder (inner diameter: 3 cm; length: 15 cm), and 10 imagoes of Callosobruchus chinensis were set free therein. An agricultural and horticultural insecticide was prepared in accordance with Formulation Example 3 and diluted with water, and 0.3 ml of the resulting emulsion was sprayed in the glass cylinder by means of a spray tower (manufactured by Mizuho Rica) (duplicates at a concentration). The cylinder was kept in a thermostat at 25° C., and the mortality and agony of the larvea were examined after 4 days from the treatment to obtain a death rate (%) taking an agonizing insect as a ½ dead insect.

Myzus persicae [3] = experiment: Insecticidal effect on larvae of Myzus persicae (Test Example 5); conditions: 500 ppm; Japanese radish leaves dipped in emulsion; 4th day after treatment at 25° C.
Method: Insecticidal Effect on Larvae of Myzus persicae:
Water was put in a screw bottle (volume: 10 ml), and a leafstalk of Japanese radish was placed therein and inoculated with 5 to 6 imagoes of Myzus persicae per leave. After the inoculation, the bottle was put in a glass cylinder (diameter: 3.5 cm; height: 15 cm) with a mesh cover, and the insects were let to proliferate in a thermostat kept at 25° C. for 3 days. […] The cylinder was maintained in the thermostat at 25° C., and the number of the insects on the leaves was counted on the 4th day after the treatment to obtain a death rate (%).

Spodoptera litura [4] = experiment: Low concentration test, Spodoptera litura (Test Example 6)
Plutella xylostella [5] = experiment: Low concentration test, Plutella xylostella (Test Example 6)
Text: Effects on the larvae of Plutella xylostella of compound Nos. 2 and 57 of the invention and, for comparison, the compound I described in an unexamined published Japanese patent application 63-316771 and the compounds II and III described in an unexamined published Japanese patent application 5-148240 were examined at varied concentrations. The results obtained are shown in Table 7 (the compound numbers in the Table correspond to the numbers in Table 1).

Myzus persicae [6] = experiment: Low concentration test, Myzus persicae (Test Example 6)
CD-1 male mice = experiment: Single oral dose administration test in mice (acute toxicity, Test Example 7); conditions: 300 mg/kg single oral dose in 0.5% CMC-Na, after 7 days
Method: Single Oral Dose Administration Test in Mice:
Acute toxicity (p.o.) compound No. 1 in mice was examined as follows. For comparison, compound IV disclosed in an unexamined published Japanese patent application 63-316771 was tested similarly.
Each test compound (300 mg) was suspended in 10 ml of a 0.5% CMC-Na aqueous solution. Five 6-week-old CD-1 male mice (available from Charles River) per group were forced to take an oral dose of 10 ml/kg of the suspension. The number of dead mice was counted after 7 days from the administration to obtain a death rate.

N#Cc1nn(-c2c(Cl)cc(C(F)(F)F)cc2Cl)c(NCc2ccncc2)c1SC(F)(F)F [Compound 1, 1-(2,6-Dichloro-4-trifluoromethylphenyl)-3-cyano-4-trifluoromethylsulfenyl-5-(4-pyridylmethylamino)pyrazole]
Death Rate (%) (Nilaparvata lugens): 100%
Death Rate (%) (Plutella xylostella [1]): 100%
Death Rate (%) (Spodoptera litura [2]): 100%
Death Rate (%) (Callosobruchus chinensis): 100%
Death Rate (%) (Myzus persicae [3]): 100%
Death Rate (%) Spodoptera litura (Spodoptera litura [4]; 3.1 ppm): 95%
Death Rate (%) Spodoptera litura (Spodoptera litura [4]; 12.5 ppm): 100%
Death Rate (%) Spodoptera litura (Spodoptera litura [4]; 50 ppm): 100%
Death Rate (%) Spodoptera litura (Spodoptera litura [4]; 200 ppm): 100%
Death Rate (%) Plutella xylostella (Plutella xylostella [5]; 0.05 ppm): 95%
Death Rate (%) Plutella xylostella (Plutella xylostella [5]; 0.2 ppm): 100%
Death Rate (%) Plutella xylostella (Plutella xylostella [5]; 0.8 ppm): 100%
Death Rate (%) Plutella xylostella (Plutella xylostella [5]; 3.1 ppm): 100%
Death Rate (%) Plutella xylostella (Plutella xylostella [5]; 12.5 ppm): 100%
Death Rate (%) Plutella xylostella (Plutella xylostella [5]; 50 ppm): 100%
Death Rate (%) Plutella xylostella (Plutella xylostella [5]; 200 ppm): 100%
Death Rate (%) Myzus persicae (Myzus persicae [6]; 12.5 ppm): 98%
Death Rate (%) Myzus persicae (Myzus persicae [6]; 50 ppm): 100%
Death Rate (%) Myzus persicae (Myzus persicae [6]; 200 ppm): 100%

COc1cc(CNc2c(SC(F)(F)F)c(C#N)nn2-c2c(Cl)cc(C(F)(F)F)cc2Cl)ccc1O [Compound 2, 1-(2,6-Dichloro-4-trifluoromethylphenyl)-3-cyano-4-trifluoromethylsulfenyl-5-[(3-methoxy-4-hydroxyphenyl)methylamino]pyrazole]
Death Rate (%) (Nilaparvata lugens): 100%
Death Rate (%) (Plutella xylostella [1]): 100%
Death Rate (%) (Spodoptera litura [2]): 100%
Death Rate (%) (Callosobruchus chinensis): 100%
Death Rate (%) (Myzus persicae [3]): 100%
Death Rate (%) (CD-1 male mice): 0%

CC(C)(C)c1ccc(CNc2c(SC(F)(F)F)c(C#N)nn2-c2c(Cl)cc(C(F)(F)F)cc2Cl)cc1 [Compound 5]
Death Rate (%) (Nilaparvata lugens): 100%
Death Rate (%) (Callosobruchus chinensis): 100%

COc1ccc(CNc2c(SC(F)(F)F)c(C#N)nn2-c2c(Cl)cc(C(F)(F)F)cc2Cl)cc1 [Compound 7]
Death Rate (%) (Nilaparvata lugens): 100%
Death Rate (%) (Plutella xylostella [1]): 100%
Death Rate (%) (Spodoptera litura [2]): 100%
Death Rate (%) (Callosobruchus chinensis): 100%

CC(C)Oc1ccc(CNc2c(SC(F)(F)F)c(C#N)nn2-c2c(Cl)cc(C(F)(F)F)cc2Cl)cc1 [Compound 8]
Death Rate (%) (Nilaparvata lugens): 100%
Death Rate (%) (Plutella xylostella [1]): 100%
Death Rate (%) (Callosobruchus chinensis): 100%

N#Cc1nn(-c2c(Cl)cc(C(F)(F)F)cc2Cl)c(NCc2ccccc2Cl)c1SC(F)(F)F [Compound 18]
Death Rate (%) (Nilaparvata lugens): 100%
Death Rate (%) (Plutella xylostella [1]): 100%
Death Rate (%) (Spodoptera litura [2]): 100%
Death Rate (%) (Callosobruchus chinensis): 100%

Cn1cccc1CNc1c(SC(F)(F)F)c(C#N)nn1-c1c(Cl)cc(C(F)(F)F)cc1Cl [Compound 57]
Death Rate (%) (Nilaparvata lugens): 100%
Death Rate (%) (Plutella xylostella [1]): 100%
Death Rate (%) (Spodoptera litura [2]): 100%
Death Rate (%) (Callosobruchus chinensis): 100%
Death Rate (%) (Myzus persicae [3]): 100%
Death Rate (%) Spodoptera litura (Spodoptera litura [4]; 12.5 ppm): 70%
Death Rate (%) Spodoptera litura (Spodoptera litura [4]; 50 ppm): 100%
Death Rate (%) Spodoptera litura (Spodoptera litura [4]; 200 ppm): 100%
Death Rate (%) Plutella xylostella (Plutella xylostella [5]; 0.2 ppm): 40%
Death Rate (%) Plutella xylostella (Plutella xylostella [5]; 0.8 ppm): 100%
Death Rate (%) Plutella xylostella (Plutella xylostella [5]; 3.1 ppm): 100%
Death Rate (%) Plutella xylostella (Plutella xylostella [5]; 12.5 ppm): 100%
Death Rate (%) Plutella xylostella (Plutella xylostella [5]; 50 ppm): 100%
Death Rate (%) Plutella xylostella (Plutella xylostella [5]; 200 ppm): 100%
Death Rate (%) Myzus persicae (Myzus persicae [6]; 12.5 ppm): 80%
Death Rate (%) Myzus persicae (Myzus persicae [6]; 50 ppm): 90%
Death Rate (%) Myzus persicae (Myzus persicae [6]; 200 ppm): 100%

COc1cc(CNc2c([S+]([O-])C(F)(F)F)c(C#N)nn2-c2c(Cl)cc(C(F)(F)F)cc2Cl)ccc1O (stereo not shown) [Compound 64]
Death Rate (%) (Nilaparvata lugens): 100%
Death Rate (%) (Plutella xylostella [1]): 100%
Death Rate (%) (Callosobruchus chinensis): 100%

Cn1cccc1C=Nc1c(SC(F)(F)F)c(C#N)nn1-c1c(Cl)cc(C(F)(F)F)cc1Cl [III]
Death Rate (%) Spodoptera litura (Spodoptera litura [4]; 12.5 ppm): 65%
Death Rate (%) Spodoptera litura (Spodoptera litura [4]; 50 ppm): 95%
Death Rate (%) Spodoptera litura (Spodoptera litura [4]; 200 ppm): 100%
Death Rate (%) Plutella xylostella (Plutella xylostella [5]; 0.8 ppm): 20%
Death Rate (%) Plutella xylostella (Plutella xylostella [5]; 3.1 ppm): 75%
Death Rate (%) Plutella xylostella (Plutella xylostella [5]; 12.5 ppm): 100%
Death Rate (%) Plutella xylostella (Plutella xylostella [5]; 50 ppm): 100%
Death Rate (%) Plutella xylostella (Plutella xylostella [5]; 200 ppm): 100%
Death Rate (%) Myzus persicae (Myzus persicae [6]; 200 ppm): 0%

N#Cc1nn(-c2c(Cl)cc(C(F)(F)F)cc2Cl)c(N=Cc2ccncc2)c1SC(F)(F)F [II]
Death Rate (%) Spodoptera litura (Spodoptera litura [4]; 3.1 ppm): 60%
Death Rate (%) Spodoptera litura (Spodoptera litura [4]; 12.5 ppm): 95%
Death Rate (%) Spodoptera litura (Spodoptera litura [4]; 50 ppm): 200%
Death Rate (%) Spodoptera litura (Spodoptera litura [4]; 200 ppm): 100%
Death Rate (%) Plutella xylostella (Plutella xylostella [5]; 0.05 ppm): 80%
Death Rate (%) Plutella xylostella (Plutella xylostella [5]; 0.2 ppm): 100%
Death Rate (%) Plutella xylostella (Plutella xylostella [5]; 0.8 ppm): 100%
Death Rate (%) Plutella xylostella (Plutella xylostella [5]; 3.1 ppm): 100%
Death Rate (%) Plutella xylostella (Plutella xylostella [5]; 12.5 ppm): 100%
Death Rate (%) Plutella xylostella (Plutella xylostella [5]; 50 ppm): 100%
Death Rate (%) Plutella xylostella (Plutella xylostella [5]; 200 ppm): 100%
Death Rate (%) Myzus persicae (Myzus persicae [6]; 200 ppm): 0%

N#Cc1nn(-c2c(Cl)cc(C(F)(F)F)cc2Cl)c(N)c1[S+]([O-])C(F)(F)F (stereo not shown) [IV, reference compound]
Death Rate (%) (CD-1 male mice): 80%

CCCNc1c(SC(F)(F)F)c(C#N)nn1-c1c(Cl)cc(C(F)(F)F)cc1Cl [I]
Death Rate (%) Spodoptera litura (Spodoptera litura [4]; 3.1 ppm): 0%
Death Rate (%) Spodoptera litura (Spodoptera litura [4]; 12.5 ppm): 50%
Death Rate (%) Spodoptera litura (Spodoptera litura [4]; 50 ppm): 100%
Death Rate (%) Spodoptera litura (Spodoptera litura [4]; 200 ppm): 100%
Death Rate (%) Plutella xylostella (Plutella xylostella [5]; 0.2 ppm): 20%
Death Rate (%) Plutella xylostella (Plutella xylostella [5]; 0.8 ppm): 85%
Death Rate (%) Plutella xylostella (Plutella xylostella [5]; 3.1 ppm): 100%
Death Rate (%) Plutella xylostella (Plutella xylostella [5]; 12.5 ppm): 100%
Death Rate (%) Plutella xylostella (Plutella xylostella [5]; 50 ppm): 100%
Death Rate (%) Plutella xylostella (Plutella xylostella [5]; 200 ppm): 100%
Death Rate (%) Myzus persicae (Myzus persicae [6]; 3.1 ppm): 0%
Death Rate (%) Myzus persicae (Myzus persicae [6]; 12.5 ppm): 50%
Death Rate (%) Myzus persicae (Myzus persicae [6]; 50 ppm): 60%
Death Rate (%) Myzus persicae (Myzus persicae [6]; 200 ppm): 50%
